PubChem BioAssay AID179 (DTP/NCI, 2004)
Activity calls are given as the source filed them.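 The calls were made as follows: active = compounds giving half or more protection of infected cells from virus-caused growth loss, again on retest; inactive = the rest.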 Where a SMILES comes first, the peptide text is derived from it. The star is where a group is joined. Myristoyl = CCCCCCCCCCCCCC(=O)*

System: CEM cells HIV-1 protection, formazan growth assay
Experiment: NCI AIDS Antiviral Assay
Settings: for IC50: measured here: growth of uninfected CEM cells
Method in brief: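 Protection of CEM cells against HIV-1 was scored from cell growth (soluble formazan) across five concentrations, with parallel uninfected cells. Lack of protection may reflect toxicity.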

Row | SMILES | EC50 | IC50 | outcome
1 | Cc1cccc2[nH]c3c(c(O)cc4[nH]c5cccc(C)c5c(=O)c43)c(=O)c12 | > 200 µM | 20.9 µM | –
2 | C#CCNC(CCCN=C(N)N)C(=O)O (centres undefined) | > 200 µM | > 200 µM | –
3 | CCN(CC)C1=NS(=O)(=O)c2ccccc2C(SC)=C1C | > 275 µM | > 275 µM | –
4 | COc1cc(C2c3cc4c(cc3[C@H](NS(C)(=O)=O)C3COC(=O)[C@H]23)OCO4)cc(OC)c1OC (some centres undefined) | – | – | inactive
5 | C#C[C@]1(O)CCCC2=CC(=O)CC[C@@]21C | – | – | inactive
6 | CNC(=O)Oc1c(Cl)cccc1SSc1cccc(Cl)c1OC(=O)NC | > 200 µM | 19.5 µM | –
7 | CCOC(=O)C(NC(=O)c1cccc(Cl)c1)(N1CCN(c2cc3c(cc2F)c(=O)c(C(=O)O)cn3CC)CC1)C(F)(F)F (centres undefined) | > 200 µM | 0.339 µM | –
8 | ClCc1c(-c2ccccc2)nn(-c2ccccc2)c1CCl | > 200 µM | 6.17 µM | –
9 | Cc1cccc(C2(Br)C(=O)c3ccccc3C2=O)c1 | > 200 µM | 195 µM | –
10 | O=C1OC(c2ccccc2)(c2ccccc2)c2ccc3ccc(F)cc3c21 | – | – | inactive
11 | C[n+]1cn(-c2ccc([N+](=O)[O-])cn2)c2ccccc21 | > 200 µM | 170 µM | –
12 | CCCCCCCCCCCCCC(=O)NCC(=O)NC(CO)C(=O)NC(CO)C(=O)NC(CCCCN)C(=O)NC(CO)C(=O)NC(CCCCN)C(=O)N1CCCC1C(=O)NC(CCCCN)C(=O)NC(CC(=O)O)C(=O)N1CCCC1C(=O)NC(CO)C(=O)NC(CCC(N)=O)C(=O)NC(CCCNC(=N)N)C(=O)NC(CCCNC(=N)N)C(=O)NC(CCCNC(=N)N)C(=O)NC(Cc1ccc(O)cc1)C(N)=O (centres undefined) (Myristoyl-GSSKSKPKDPSQRRRY-NH2; configuration not given here) | > 120 µM | > 120 µM | –
13 | CC1CCCc2c(CC3CC(=O)NC(=O)C3)nc(N)nc21 (centres undefined) | > 200 µM | > 200 µM | –
14 | CN(C)c1ccc2nc3c(C(=O)O)cc(=O)c(O)c-3oc2c1 | > 100 µM | 13.8 µM | –
15 | COC(=O)C1=CCON(c2ccccc2)C1c1ccccc1 (centres undefined) | > 45.7 µM | – | –
16 | Clc1ccc(C2=NN(c3ccccc3)C3c4cc(Br)ccc4OCC23)cc1 (centres undefined) | > 11.7 µM | > 11.7 µM | –
17 | CS/C(c1ccccc1)=[N+](/C)[O-] | > 813 µM | 589 µM | –
18 | CCCCc1c2c(nc3c1CCC/C3=C\c1ccccc1)C(=O)CCC2 | > 5.75 µM | > 5.75 µM | –
19 | CCOC(=O)/C(=C\c1ccccc1Cl)P(=O)(OCC)OCC | > 20.9 µM | 11.7 µM | –
20 | CC1CCC(O)C(C(O)CC2CC(=O)NC(=O)C2)C1 (centres undefined) | > 200 µM | > 200 µM | –

Row | SMILES | EC50 | IC50 | outcome
21 | c1ccc(C2=C(c3ccccc3)P(c3ccccc3)C2)cc1 (centres undefined) | – | – | inactive
22 | COc1cccc2c1C(=N)c1c(O)c3c(c(O)c1C2=O)C[C@@](O)(C(C)=O)C[C@@H]3OC1CC(N)C(O)C(C)O1 (some centres undefined) | > 0.2 µM | 0.00631 µM | –
23 | CCCN(CCC)CCc1ccc(OC2=CCN(C)CC2)cc1 | > 200 µM | 87.1 µM | –
24 | Nc1c[nH][nH]c(=S)c1=S | > 200 µM | 3.63 µM | –
25 | Cc1nn2c(=O)n(-c3cccc(-n4nnc5c(-c6ccccc6)c(C)nn5c4=O)c3C)nnc2c1-c1ccccc1 | – | – | inactive
26 | Cc1noc(NS(=O)(=O)c2ccc(NC(=S)/N=C/c3c(O)[nH]c(=O)[nH]c3=O)cc2)c1C | > 200 µM | > 200 µM | –
27 | Cc1cc(Cl)ccc1NC(=O)CC1SC(=NC(=O)c2ccccc2Cl)NC1=O (centres undefined) | > 16.6 µM | > 16.6 µM | –
28 | CC1(C)COC(c2cc3c(cc2Br)OCO3)=N1 | > 209 µM | > 209 µM | –
29 | CCOC(=S)SCCSC | > 200 µM | > 200 µM | –
30 | O=C1N[C@H](C(=O)O)[C@@H](c2ccc(OCc3ccccc3)cc2)O1 | > 200 µM | > 200 µM | –
31 | COC(=O)C1CC2(c3ccccc3)C(=O)c3ccccc3N2O1 (centres undefined) | – | – | inactive
32 | CC1CC2(C)ON=C(c3ccccc3)N2c2ccccc2S1 (centres undefined) | – | – | inactive
33 | c1ccc(C2=NN(c3ccccc3)C3(S2)SC(c2ccccc2)(c2ccccc2)c2ccccc23)cc1 (centres undefined) | > 50.1 µM | > 50.1 µM | –
34 | C=CCCC12CCCC(=O)C1Sc1ccccc12 (centres undefined) | > 138 µM | 91.2 µM | –
35 | CSC1(C)CC2C(CC1N1CCCCC1)C2(C)C (centres undefined) | > 93.3 µM | 44.7 µM | –
36 | COC(=O)C(=O)C(C(=O)C(=O)Nc1nc2ccc(C)cc2s1)c1nc2ccc([N+](=O)[O-])cc2[nH]c1=O (centres undefined) | > 132 µM | 126 µM | –
37 | O=C1C(=Cc2cccc(Br)c2)C(=O)c2ccccc21 | 15.5 µM | 22.9 µM | –
38 | Fc1ccc(C2SCc3nc4ccccc4n32)cc1Cl (centres undefined) | > 72.4 µM | 25.7 µM | –
39 | CCOC(=O)C1(N)CC1 | > 200 µM | > 200 µM | –
40 | COC(=O)/C=C(\C(=O)OC)c1c(C)c(C)c2c(C)cc(C)cc(C)c1-2 | > 200 µM | 16.6 µM | –

Row | SMILES | EC50 | IC50 | outcome
41 | NC(=S)Nc1[nH]c(=S)nc2c1SC1=N/C(=C\c3ccco3)C(=O)N12 | > 200 µM | 81.3 µM | –
42 | CCS(=O)(=O)[C@@]1(C#N)CC[C@]1(C#N)S(=O)(=O)CC | 646 µM | 871 µM | –
43 | CC(C)c1ccc(C(c2ccc(OCC(=O)NCCN(C)C)cc2)c2ccc(C(C)C)cc(=O)c2O)c(O)c(=O)c1 | – | – | inactive
44 | COC1OC2COC(c3ccccc3)OC2C2OC(=S)OC12 (centres undefined) | – | – | inactive
45 | O=C1C(c2ccccc2)=C(O)c2cccc3cccc1c23 | > 912 µM | 85.1 µM | –
46 | NC(Cc1ccccc1CP(=O)(O)O)C(=O)O (centres undefined) | > 200 µM | > 200 µM | –
47 | CCOc1ccc(/C=C2/C(=O)N=C(NC(C)=O)N2C)cc1 | > 200 µM | > 200 µM | –
48 | Cc1ncc(N)c(C(=O)O)n1 | > 1620 µM | > 1620 µM | –
49 | CCOC(=O)C(C)(C(=O)OCC)/C(Cl)=C\Cl | > 200 µM | > 200 µM | –
50 | CC[P+](c1ccccc1)(N(C)C)N(C)C | > 200 µM | 112 µM | –
51 | COC(=O)c1cc(OC)c(OC)c(OC)c1-c1cc2c(cc1C=O)OCO2 | > 132 µM | 120 µM | –
52 | COc1ccc(S(=O)(=O)NC(C)C(=O)O)cc1 (centres undefined) | – | – | inactive
53 | CC(NC(=O)OC(C)(C)C)C(=O)NC(Cc1ccccc1)C(=O)NCC(=O)ON=C1CCCC1 (centres undefined) | > 200 µM | 25.7 µM | –
54 | CCCNC(=O)c1sc(SC)nc1NC(=O)c1ccc(OC)cc1 | > 200 µM | > 200 µM | –
55 | CCOc1ccccc1/C=C1\NC(=O)N(/C=C2\C(=O)Oc3ccccc3C2=O)C1=O | > 200 µM | 87.1 µM | –
56 | N#CC(NNC(=O)Cc1ccccc1)c1c(O)ccc2ccccc12 (centres undefined) | > 56.2 µM | 3.89 µM | –
57 | C/C(=N\O)[C@H]1CC[C@H]2[C@@H]3CCC4=C/C(=N/O)CC[C@]4(C)[C@H]3C(=O)C[C@]12C | > 200 µM | 39.8 µM | –
58 | CC(=O)N1CC(C)(C)c2c(C)c(O)c(C)c(C)c21 | > 200 µM | 178 µM | –
59 | O=C1Nc2ccccc2C1(O)Cc1ccccn1 (centres undefined) | > 1050 µM | > 1050 µM | –
60 | CC(=O)OCC(c1ccccc1)N1C(=O)C(OC(C)=O)[C@H](OC(C)=O)C1=O (some centres undefined) | > 661 µM | > 661 µM | –
